The numbers were not newly measured in patent US20080182823A1, “POLYMER-LINKED-BIOPHOSPHONATE INHALANT FORMULATIONS AND METHODS FOR USING THE SAME” (priority 2007, published 2008), which cites them from elsewhere.

The data set concerns antral mucosa. The settings on record: rat models; Lichtenberger et al., Dig. Dis. Sci. 45(9):1792-1801, 2000.

On to `NCCCC(O)(P(=O)(O)O)P(=O)(O)O` [alendronate, (4-amino-1-hydroxybutylidene)-bis-phosphonate], for which the antral mucosal injury entry is recorded as “cause antral mucosal injury”.

As for `O=P(O)(O)C(O)(Cc1cccnc1)P(=O)(O)O` [risedronate, [1-Hydroxy-2-(3-pyridinyl)-ethylidine] bis-phosphonate], the antral mucosal injury result is “cause antral mucosal injury”.
